Values of other authors in US20230355701A1, “CO[…] COMPOUNDS” (CAAMTECH, INC., priority 2019, published 2023).
Where two headings read alike, the source gives them in different places.

Key:
[1] = target: T1, human delta opioid receptor (hDOR) (Homo sapiens, UniProt P41143)
[2] = mediated through agonist activity at hMOR
[3] = target: hMOR (Homo sapiens, UniProt P35372); conditions: for functional behaviour at hMOR: BRET functional assay
[4] = target: T1, human delta opioid receptor (hDOR); remark: listed apart in the source
[5] = target: human kappa opioid receptor (hKOR) (Homo sapiens, UniProt P41145)
[6] = rats
[7] = dogs, given intraperitoneally or orally
[8] = mice
[9] = intracerebroventricular administration
[10] = given intraperitoneally or orally

T1 sequence (P41143 whole entry): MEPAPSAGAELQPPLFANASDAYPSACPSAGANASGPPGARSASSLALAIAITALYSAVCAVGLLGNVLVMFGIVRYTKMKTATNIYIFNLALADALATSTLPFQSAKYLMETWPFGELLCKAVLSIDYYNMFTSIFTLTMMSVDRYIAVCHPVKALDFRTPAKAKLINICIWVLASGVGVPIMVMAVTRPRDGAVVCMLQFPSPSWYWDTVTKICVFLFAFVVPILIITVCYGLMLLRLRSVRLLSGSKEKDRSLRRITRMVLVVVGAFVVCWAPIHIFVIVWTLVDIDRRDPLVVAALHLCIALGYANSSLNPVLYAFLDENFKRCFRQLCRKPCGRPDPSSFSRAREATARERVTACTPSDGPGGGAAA
hMOR, sequence (P35372 whole entry): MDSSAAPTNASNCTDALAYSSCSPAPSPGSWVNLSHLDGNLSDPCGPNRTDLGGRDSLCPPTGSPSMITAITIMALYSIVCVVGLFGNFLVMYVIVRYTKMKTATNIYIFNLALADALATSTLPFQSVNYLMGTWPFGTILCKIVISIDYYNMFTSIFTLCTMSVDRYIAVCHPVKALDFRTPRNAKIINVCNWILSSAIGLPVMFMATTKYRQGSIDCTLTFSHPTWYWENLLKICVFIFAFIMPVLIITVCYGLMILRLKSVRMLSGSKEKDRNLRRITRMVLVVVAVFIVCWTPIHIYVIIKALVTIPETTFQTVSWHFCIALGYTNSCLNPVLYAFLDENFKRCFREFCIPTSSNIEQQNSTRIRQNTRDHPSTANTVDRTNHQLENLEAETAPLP
human kappa opioid receptor (hKOR), sequence (P41145 whole entry): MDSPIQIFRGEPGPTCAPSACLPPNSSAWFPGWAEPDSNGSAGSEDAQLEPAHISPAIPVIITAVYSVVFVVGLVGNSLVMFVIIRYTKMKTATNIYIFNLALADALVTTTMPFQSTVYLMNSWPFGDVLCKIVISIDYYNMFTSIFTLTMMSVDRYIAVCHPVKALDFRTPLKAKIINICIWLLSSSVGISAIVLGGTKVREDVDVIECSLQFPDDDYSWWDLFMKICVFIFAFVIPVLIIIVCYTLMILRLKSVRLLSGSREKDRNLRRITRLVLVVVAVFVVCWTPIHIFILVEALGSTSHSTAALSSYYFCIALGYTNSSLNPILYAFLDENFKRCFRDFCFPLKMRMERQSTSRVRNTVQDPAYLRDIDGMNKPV

| SMILES | binding at hDOR [1] | functional behaviour at hMOR [3] | functional behaviour at hDOR [4] | IC50 [5] | functional behaviour at hKOR [5] | antagonist activity at hMOR ([3]; hMOR) | also measured |
| --- | --- | --- | --- | --- | --- | --- | --- |
| CC[C@@H]1CN2CC[C@@]3(O)C(=Nc4cccc(OC)c43)[C@@H]2C[C@@H]1/C(=C\OC)C(=O)OC [7-OH, 7-hydroxymitragynine] | observed | partial agonists | weak antagonist activity | micromolar range | competitive antagonists |  | analgesic effects [2]: exhibits analgesic effects |
| CC[C@@H]1CN2CCc3c([nH]c4cccc(OC)c34)[C@@H]2C[C@@H]1/C(=C\OC)C(=O)OC [Mitragynine] | negligible | partial agonists | weak antagonist activity | micromolar range | competitive antagonists |  | analgesic activity ([6]; administered subcutaneously): inactive; analgesic potency [6, 10]: equivalent to codeine; analgesic potency [7]: equivalent to codeine; analgesic activity ([8]; administered subcutaneously): inactive; analgesic potency [8, 10]: equivalent to codeine; analgesic activity [9]: active analgesic |
| C=C[C@H]1CN2CCc3c([nH]c4cccc(OC)c34)[C@@H]2C[C@@H]1/C(=C\OC)C(=O)OC [paynantheine] |  |  |  |  |  | competitive antagonist activity | IC50 ([3]; hMOR): micromolar range |
| CC[C@@H]1CN2CCc3c([nH]c4cccc(OC)c34)[C@H]2C[C@@H]1/C(=C\OC)C(=O)OC [speciociliatine] |  |  |  |  |  | competitive antagonist activity |  |
| CCC1CN2CCc3c([nH]c4cccc(OC)c34)[C@@H]2C[C@@H]1/C(=C\OC)C(=O)OC (stereo partly drawn) [speciogynine] |  |  |  |  |  | competitive antagonist activity |  |
